{"source": "patent US20200045965A1", "about": "“METHOD FOR THE CONTROL OF PLANT BACTERIAL DISEASES USING CARBOXAMIDE DERIVATIVES” (BAYER CROPSCIENCE AKTIENGESELLSCHAFT, priority 2016, published 2020)", "key": {"[1]": {"assay": "log P by HPLC on reversed-phase column (EEC Directive 79/831 Annex V.A8)", "assay_type": "physicochemical", "conditions": "HPLC C18, 40° C., 0.1% aqueous formic acid and acetonitrile", "description": "Table 1 provides the log P and NMR data (^1H) of compounds A1 to A20.\nIn table 1, the log P values were determined in accordance with EEC Directive 79/831 Annex V.A8 by HPLC (High Performance Liquid Chromatography) on a reversed-phase column (C 18), using the method described below:\nTemperature: 40° C.; Mobile phases: 0.1% aqueous formic acid and acetonitrile; linear gradient from 10% acetonitrile to 90% acetonitrile.\nCalibration was carried out using unbranched alkan-2-ones (comprising 3 to 16 carbon atoms) with known log P values (determination of the log P values by the retention times using linear interpolation between two successive alkanones). lambda-max-values were determined using UV-spectra from 200 nm to 400 nm and the peak values of the chromatographic signals."}, "[2]": {"system": "Xanthomonas spp.", "assay": "Field trial in vivo against bacterial leaf streak on spring wheat, foliar spray", "set-up": "species or system Xanthomonas translucens", "description": "EXAMPLE 2: TEST IN VIVO AGAINST XANTHOMONAS TRANSLUCENS (WHEAT)\nField trials were conducted to test the efficacy of N-(5-chloro-2-isopropylbenzyl)-N-cyclopropyl-3-(difluoromethyl)-5-fluoro-1-methyl-1H-pyrazole-4-carboxamide (compound A5) in combination with the commercial standard Prosaro (a 1:1 combination of Prothioconazole and Tebuconazole) against bacterial leaf streak caused by Xanthomonas spp. when sprayed on leaves. A control without compound A5 was tested in same conditions.\nThe field trials were randomized, had 4 replicates and plot size was 15.24 m^2. Fertilization, herbicide- and insecticide applications were carried out according to the local agricultural practice.\nN-(5-chloro-2-isopropylbenzyl)-N-cyclopropyl-3-(difluoromethyl)-5-fluoro-1-methyl-1H-pyrazole-4-carboxamide was applied as SC 280 formulation in 3 rates in combination with the commercial standard Prosaro. Test was conducted in a Spring wheat which was treated in growth stage EC 61 with one foliar application.\n22 days after application the efficacy of the tested products against the bacterial leaf streak caused by Xanthomonas spp. was visually assessed. The effect was evaluated as preservation of remaining green leaves (GRNLVS) in a scale from 1-6 (meaning 1 best and 6 worst green leaf preservation)"}, "[3]": {"system": "Pseudomonas syringae", "assay": "Field trials in vivo against Pseudomonas syringae on coffee tree, foliar spray", "description": "EXAMPLE 1: TEST IN VIVO AGAINST PSEUDOMONAS SYRINGAE (COFFEE)\nTwo field trials were conducted to find out the efficacy of N-(5-chloro-2-isopropylbenzyl)-N-cyclopropyl-3-(difluoromethyl)-5-fluoro-1-methyl-1H-pyrazole-4-carboxamide (compound A5) against bacteria (Pseudomonas syringae) when sprayed on leaves of coffee tree.\nThe field trials were randomized, had 3 replicates and plot size was 20 m. The product was applied as an EC 100—formulation in a spray sequence consisting of three foliar applications, beginning in the growth stage EC59. The sprays were done with an interval of approximately 4 weeks (between treatments). About 3 and 11 weeks after the third application the efficacy of the compound against the bacterial pathogen Pseudomonas syringae was visually assessed as incidence of infested leaf rosettes or branches per plot (in %). Then the incidence values were converted into control (% Abbott)."}}}
{"molecule": "N-cyclopropyl-3-(difluoromethyl)-5-fluoro-N-(2-isopropylbenzyl)-1-methyl-1H-pyrazole-4-carbothio-amide [Compound A20]", "values": [{"measurement": "logP", "setting": "[1]", "result": 4.36}]}
{"molecule": "CC(C)c1ccc(Cl)cc1CN(C(=O)c1c(C(F)F)nn(C)c1F)C1CC1", "note": "[Compound A5, N-(5-chloro-2-isopropylbenzyl)-N-cyclopropyl-3-(difluoromethyl)-5-fluoro-1-methyl-1H-pyrazole-4-carboxamide]", "values": [{"measurement": "suppressing bacterial leaf streak caused by Xanthomonas spp. (conclusion in words)", "setting": "[2]", "result": "proves the efficiency"}, {"measurement": "effect on bacterial disease caused by Pseudomonas syringae in coffee (conclusion in words)", "setting": "[3]; based on the two field trials", "result": "suppresses the bacterial disease"}, {"measurement": "ABBOTT (%) leaf rosette 21 DA3", "setting": "[3]; coffee, first trial (Table 1), 75 g a.i./ha, 21 days after third application", "result": 39.2, "unit": "%"}, {"measurement": "ABBOTT (%) branch 74 DA3", "setting": "[3]; coffee, first trial (Table 1), 75 g a.i./ha, 74 days after third application", "result": 45, "unit": "%"}, {"measurement": "LEAF ROSETTE INCIDENCE (%) 21 DA3", "setting": "[3]; coffee, first trial (Table 1), 75 g a.i./ha, EC 100, three foliar applications, 21 days after third application, untreated 12.2", "result": 7.4, "unit": "%"}, {"measurement": "ABBOTT (%) leaf rosette 20 DA3", "setting": "[3]; coffee, second trial (Table 2), 75 g a.i./ha, 20 days after third application", "result": 65.2, "unit": "%"}, {"measurement": "LEAF ROSETTE INCIDENCE (%) 20 DA3", "setting": "[3]; coffee, second trial (Table 2), 75 g a.i./ha, 20 days after third application, untreated 3.5", "result": 1.2, "unit": "%"}]}
